Assay results taken from patent US20250313547A1, “CEREBLON LIGANDS AND BIFUNCTIONAL COMPOUNDS COMPRISING THE SAME” (Arvinas Operations, Inc., priority 2017, published 2025).

System: androgen receptor (AR)
Assay: AR ELISA assay (androgen receptor degradation)
Type: cell-based
Settings: LNCaP and/or VCaP cells, 5 hours drug treatment; for AR Dmax: % degraded
Method: 5. AR ELISA Assay Protocol
Compounds were evaluated in this assay in LNCaP and/or VCaP cells utilizing similar protocols. The protocols used with VCaP cells are described below. The androgen receptor ELISA assay was performed using PathScan AR Sandwich ELISA (Cell Signaling Catalog #12850) according to the following assay steps:
VCaP cells were seeded at 40,000 cells/well at a volume of 100 µL/well in VCaP assay medium [Phenol red free RPMI (Gibco Cat #11835-030); 5% Charcoal Stripped (Dextran treated) FBS (Omega Scientific, Cat #FB-04); 1% penstrep (Life Technologies, Gibco Cat #: 10378-016)] in Corning 3904 plates. The cells were incubated for a minimum of 3 days. Cells were dosed with PROTACs diluted in 0.01% DMSO and the drug treatment was allowed for 5 hours.
AR ELISA (Cell Signaling) was performed as follows. 1×Cell Signaling Cell lysis buffer was made (Catalogue #9803; comes with the kit). Media from the treated wells is aspirated, and 100 μL 1×cell lysis buffer/well is added. The cells were placed on a shaker for 10 minutes at 4° C. Twenty microliters of lysate was transferred to 100 μl of Diluent in ELISA plate ([…]-0.075 μg/ml). The lysate-diluent mixture was shaken for 30 minutes at 37° C. Allow mouse AR antibody, anti-mouse antibody, TMB, and STOP solution to come to room temperature. The 1×ELISA buffer included in kit was made and loaded in the reservoir. Media from the plates was discarded, the ELISA plate tapped hard on paper towel, and washed 4×200 μl ELISA wash buffer using a plate washer.
One-hundred (100) μL/well of mouse AR detection Ab was added; the plates were covered and shaken at 37° C. for 1 hour; media was discarded from the plates, the plates were tapped on a paper towel, washed 4× with 200 μL ELISA wash buffer with a plate washer.
One-hundred (100) μL/well of anti-mouse—HRP conjugated Ab (comes with the kit) was added; the plates were covered and shaken at 37° C. for 30 minutes; the TMB reagent was allowed to come to room temperature; the media was discard from the plate, the plates were tapped on paper towel, washed 4× with 200 μL of ELISA wash buffer; the plates were tapped the plates on paper towel. One-hundred (100) μL of TMB was added and the plates shaken for 2 minutes—while watching for color development. One-hundred (100) μL Stop solution was added when light blue color developed. Plates were shaken and read at 450 nm.

SMILES	AR Dmax	DC50 [nM]
CC1(C)[C@H](NC(=O)c2ccc(N3CCN(CCCCCOc4ccc(C(=O)NC5CCC(=O)NC5=O)nc4)CC3)nc2)C(C)(C)[C@H]1Oc1ccc(C#N)c(Cl)c1 (mixture of isomers) [PROTAC-27, rac-5-((5-(4-(5-(((1r,3r)-3-(3-chloro-4-cyanophenoxy)-2,2,4,4-tetramethylcyclobutyl)carbamoyl)pyridin-2-yl)piperazin-1-yl)pentyl)oxy)-N-(2,6-dioxopiperidin-3-yl)picolinamide]	B (50 < B <= 75)	1 to 10
CC1Nc2c(OCCCCCN3CCN(c4ccc(C(=O)N[C@H]5C(C)(C)[C@H](Oc6ccc(C#N)c(Cl)c6)C5(C)C)cn4)CC3)cccc2C(=O)N1C1CCC(=O)NC1=O (mixture of isomers) [PROTAC-28, rac-N-((1r,3r)-3-(3-chloro-4-cyanophenoxy)-2,2,4,4-tetramethylcyclobutyl)-6-(4-(5-((3-(2,6-dioxopiperidin-3-yl)-2-methyl-4-oxo-1,2,3,4-tetrahydroquinazolin-8-yl)oxy)pentyl)piperazin-1-yl)nicotinamide]	C (C <= 50)	≥ 100
CCN(C(=O)c1ccc(OCCCCCN2CCN(c3ccc(C(=O)N[C@H]4C(C)(C)[C@H](Oc5ccc(C#N)c(Cl)c5)C4(C)C)cn3)CC2)cc1)C1CCC(=O)NC1=O (mixture of isomers) [PROTAC-48, rac-N-((1r,3r)-3-(3-chloro-4-cyanophenoxy)-2,2,4,4-tetramethylcyclobutyl)-6-(4-(5-(4-((2,6-dioxopiperidin-3-yl)(ethyl)carbamoyl)phenoxy)pentyl)piperazin-1-yl)nicotinamide]	C (C <= 50)	≥ 100
CN(C(=O)c1ccc(OCCCCCN2CCN(c3ccc(C(=O)N[C@H]4C(C)(C)[C@H](Oc5ccc(C#N)c(Cl)c5)C4(C)C)cn3)CC2)cc1)C1CCC(=O)NC1=O (mixture of isomers) [PROTAC-49, rac-N-((1r,3r)-3-(3-chloro-4-cyanophenoxy)-2,2,4,4-tetramethylcyclobutyl)-6-(4-(5-(4-((2,6-dioxopiperidin-3-yl)(methyl)carbamoyl)phenoxy)pentyl)piperazin-1-yl)nicotinamide]	C (C <= 50)	≥ 100
CC1(C)[C@H](NC(=O)c2ccc(N3CCN(CCCCOc4ccc(C(=O)NC5CCC(=O)NC5=O)nc4)CC3)nc2)C(C)(C)[C@H]1Oc1ccc(C#N)c(Cl)c1 (mixture of isomers) [PROTAC-51, rac-5-(4-(4-(5-(((1r,3r)-3-(3-chloro-4-cyanophenoxy)-2,2,4,4-tetramethylcyclobutyl)carbamoyl)pyridin-2-yl)piperazin-1-yl)butoxy)-N-(2,6-dioxopiperidin-3-yl)picolinamide]	C (C <= 50)	< 1
CC1(C)[C@H](NC(=O)c2ccc(N3CCC(CCN4CCN(c5ccc(C(=O)NC6CCC(=O)NC6=O)nc5)CC4)CC3)nc2)C(C)(C)[C@H]1Oc1ccc(C#N)c(Cl)c1 (mixture of isomers) [PROTAC-52, rac-5-(4-(2-(1-(5-(((1r,3r)-3-(3-chloro-4-cyanophenoxy)-2,2,4,4-tetramethylcyclobutyl)carbamoyl)pyridin-2-yl)piperidin-4-yl)ethyl)piperazin-1-yl)-N-(2,6-dioxopiperidin-3-yl)picolinamide]	B (50 < B <= 75)	< 1
CC1(C)[C@H](NC(=O)c2ccc(N3CCC(CN4CCN(c5ccc(C(=O)NC6CCC(=O)NC6=O)nc5)CC4)CC3)nn2)C(C)(C)[C@H]1Oc1ccc(C#N)c(Cl)c1 (mixture of isomers) [PROTAC-54, rac-N-((1r,3r)-3-(3-chloro-4-cyanophenoxy)-2,2,4,4-tetramethylcyclobutyl)-6-(4-((4-(6-((2,6-dioxopiperidin-3-yl)carbamoyl)pyridin-3-yl)piperazin-1-yl)methyl)piperidin-1-yl)pyridazine-3-carboxamide]	B (50 < B <= 75)	1 to 10
CC1(C)[C@H](NC(=O)c2ccc(N3CCC(CN4CCN(c5ccc(C(=O)NC6CCC(=O)NC6=O)nc5)CC4)CC3)cc2)C(C)(C)[C@H]1Oc1ccc(C#N)c(Cl)c1 (mixture of isomers) [PROTAC-55, rac-5-(4-((1-(4-(((1r,3r)-3-(3-chloro-4-cyanophenoxy)-2,2,4,4-tetramethylcyclobutyl)carbamoyl)phenyl)piperidin-4-yl)methyl)piperazin-1-yl)-N-(2,6-dioxopiperidin-3-yl)picolinamide]	B (50 < B <= 75)	< 1
CC1(C)[C@H](NC(=O)c2cnc(N3CCC(CN4CCN(c5ccc(C(=O)NC6CCC(=O)NC6=O)nc5)CC4)CC3)cn2)C(C)(C)[C@H]1Oc1ccc(C#N)c(Cl)c1 (mixture of isomers) [PROTAC-56, rac-N-((1r,3r)-3-(3-chloro-4-cyanophenoxy)-2,2,4,4-tetramethylcyclobutyl)-5-(4-((4-(6-((2,6-dioxopiperidin-3-yl)carbamoyl)pyridin-3-yl)piperazin-1-yl)methyl)piperidin-1-yl)pyrazine-2-carboxamide]	B (50 < B <= 75)	1 to 10
CC1(C)[C@H](NC(=O)c2ccc(N3CCN(CCCOc4cnn(C5CCC(=O)NC5=O)c(=O)c4)CC3)nc2)C(C)(C)[C@H]1Oc1ccc(C#N)c(Cl)c1 (mixture of isomers) [PROTAC-60, rac-N-((1r,3r)-3-(3-chloro-4-cyanophenoxy)-2,2,4,4-tetramethylcyclobutyl)-6-(4-(3-((1-(2,6-dioxopiperidin-3-yl)-6-oxo-1,6-dihydropyridazin-4-yl)oxy)propyl)piperazin-1-yl)nicotinamide]	C (C <= 50)	≥ 100
CC1(C)[C@H](NC(=O)c2ccc(N3CCC(CN4CCN(c5cnn(C6CCC(=O)NC6=O)c(=O)c5)CC4)CC3)cc2)C(C)(C)[C@H]1Oc1ccc(C#N)c(Cl)c1 (mixture of isomers) [PROTAC-62, rac-N-((1r,3r)-3-(3-chloro-4-cyanophenoxy)-2,2,4,4-tetramethylcyclobutyl)-4-(4-((4-(1-(2,6-dioxopiperidin-3-yl)-6-oxo-1,6-dihydropyridazin-4-yl)piperazin-1-yl)methyl)piperidin-1-yl)benzamide]	B (50 < B <= 75)	< 1
CC1(C)[C@H](NC(=O)c2ccc(N3CCC(CCN4CCN(c5cnn(C6CCC(=O)NC6=O)c(=O)c5)CC4)CC3)cc2)C(C)(C)[C@H]1Oc1ccc(C#N)c(Cl)c1 (mixture of isomers) [PROTAC-63, rac-N-((1r,3r)-3-(3-chloro-4-cyanophenoxy)-2,2,4,4-tetramethylcyclobutyl)-4-(4-(2-(4-(1-(2,6-dioxopiperidin-3-yl)-6-oxo-1,6-dihydropyridazin-4-yl)piperazin-1-yl)ethyl)piperidin-1-yl)benzamide]	A (A > 75)	< 1
Cn1c(-c2cccc(OCCCCCN3CCN(c4ccc(C(=O)N[C@H]5C(C)(C)[C@H](Oc6ccc(C#N)c(Cl)c6)C5(C)C)cc4)CC3)c2)nn(C2CCC(=O)NC2=O)c1=O (mixture of isomers) [PROTAC-67, rac-N-((1r,3r)-3-(3-chloro-4-cyanophenoxy)-2,2,4,4-tetramethylcyclobutyl)-4-(4-(5-(3-(1-(2,6-dioxopiperidin-3-yl)-4-methyl-5-oxo-4,5-dihydro-1H-1,2,4-triazol-3-yl)phenoxy)pentyl)piperazin-1-yl)benzamide]	C (C <= 50)	1 to 10
